Measured values reported in US9125388B2, “Biological control” (Isis Innovation Limited, priority 1999, dated 2015).

Columns and labels:
Format in all cases: in vivo, Drosophila melanogaster
[1] = system: Yp3 tTa^(A) × tRe Msl-1^Mpu(A, B,); assay: Single chromosome crosses at 25° C., adult progeny by sex
Experimental: (§1) In “single chromosome crosses” at 25° C., ten to fifteen virgin females homozygous for the tTA construct and five to ten young males homozygous for the tRe construct were placed on food containing or lacking a tetracycline supplement.

[2] = system: Hsp26 tTa^(A) × tRe MSl-1^Mpu(A, B,); assay: as above
Experimental: as §1

[3] = system: Sxlpe tTa^(A, B, C, F) × tRe Ras64B^V12(B, C); assay: as above
Experimental: as §1

[4] = system: (Male) Sxlp^e tTa^(A) tRe lacZ^(I) × C(1)DX (Female); assay: Reporter crosses at 25° C., embryos stained for lacZ
Source text: As with “single chromosome crosses”, ten to fifteen virgin females homozygous for the tTA construct and five to ten young males homozygous for the tRe construct were placed on food containing or lacking a tetracycline supplement.
C(1)DX is a compound X chromosome; effectively two X chromosomes joined together. The X chromosome from males crossed to C(1)DX females is therefore inherited by the sons, rather than the daughters.

Structure (SMILES): CN(C)[C@@H]1C(O)=C(C(N)=O)C(=O)[C@@]2(O)C(O)=C3C(=O)c4c(O)cccc4[C@@](C)(O)[C@H]3C[C@@H]12 [Tetracycline, tetracycline]
- Female progeny Total ([1]; Tetracycline 0.1 μg/ml in food): 336
- Male progeny Total ([1]; Tetracycline 0.1 μg/ml in food): 379
- Female progeny Total ([1]; Tetracycline 1 μg/ml in food): 319
- Male progeny Total ([1]; Tetracycline 1 μg/ml in food): 347
- Female progeny Total ([1]; Tetracycline 5 μg/ml in food): 307
- Male progeny Total ([1]; Tetracycline 5 μg/ml in food): 348
- Female progeny Total ([2]; Tetracycline 0.1 μg/ml in food): 328
- Male progeny Total ([2]; Tetracycline 0.1 μg/ml in food): 368
- Female progeny Total ([2]; Tetracycline 1 μg/ml in food): 310
- Male progeny Total ([2]; Tetracycline 1 μg/ml in food): 343
- Female progeny Total ([2]; Tetracycline 5 μg/ml in food): 313
- Male progeny Total ([2]; Tetracycline 5 μg/ml in food): 347
- Female progeny Total ([3]; Tetracycline 0.1 μg/ml in food): 379
- Male progeny Total ([3]; Tetracycline 0.1 μg/ml in food): 434
- Female progeny Total ([3]; Tetracycline 1 μg/ml in food): 386
- Male progeny Total ([3]; Tetracycline 1 μg/ml in food): 389
- Female progeny Total ([3]; Tetracycline 5 μg/ml in food): 383
- Male progeny Total ([3]; Tetracycline 5 μg/ml in food): 375
- LacZ negative Total ([4]; Tetracycline 0.1 μg/ml in food): 708
- LacZ positive Total ([4]; Tetracycline 0.1 μg/ml in food): 0
- LacZ negative Total ([4]; Tetracycline 1 μg/ml in food): 737
- LacZ positive Total ([4]; Tetracycline 1 μg/ml in food): 0
- LacZ negative Total ([4]; Tetracycline 5 μg/ml in food): 683
- LacZ positive Total ([4]; Tetracycline 5 μg/ml in food): 0
